Values joined by “and” are separate entries in the source; they are usually repeats but may differ in a detail not shown here. Equal entries are not always repeated. Inconclusive results and toxic doses are left out.
System: L1210 leukemia ip in BDF1 mice, survival T/C
Test: NCI In Vivo Anticancer Drug Screen. Data for tumor model L1210 Leukemia (intraperitoneal) in B6D2F1 (BDF1) mice
Details: endpoint: mean survival time, higher = longer survival
Summary of the method: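 Ratio derived from survival: compound-dosed mice over vehicle-dosed mice, all bearing a transplantable tumor.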

[1] = dose: 25.0 mg/kg/injection, schedule: Q04DX003 (ip), vehicle: saline with Tween-80
[2] = dose: 50.0 mg/kg/injection, schedule: Q04DX003 (ip), vehicle: saline with Tween-80
[3] = dose: 100.0 mg/kg/injection, schedule: Q01DX001 (ip), vehicle: saline
[4] = dose: 200.0 mg/kg/injection, schedule: Q01DX001 (ip), vehicle: saline
[5] = dose: 100.0 mg/kg/injection, schedule: Q04DX002 (ip), vehicle: Klucel (hydroxypropylcellulose) (HPC)
[6] = dose: 200.0 mg/kg/injection, schedule: Q04DX002 (ip), vehicle: Klucel (hydroxypropylcellulose) (HPC)
[7] = dose: 400.0 mg/kg/injection, schedule: Q04DX002 (ip), vehicle: Klucel (hydroxypropylcellulose) (HPC)
[8] = dose: 100.0 mg/kg/injection, schedule: Q01DX009 (ip), vehicle: saline with Tween-80
[9] = dose: 100.0 mg/kg/injection, schedule: Q04DX003 (ip), vehicle: saline with Tween-80
[10] = dose: 100.0 mg/kg/injection, schedule: Q01DX001 (ip), vehicle: Klucel (hydroxypropylcellulose) (HPC)
[11] = dose: 200.0 mg/kg/injection, schedule: Q01DX001 (ip), vehicle: Klucel (hydroxypropylcellulose) (HPC)
[12] = dose: 400.0 mg/kg/injection, schedule: Q01DX001 (ip), vehicle: Klucel (hydroxypropylcellulose) (HPC)
[13] = dose: 200.0 mg/kg/injection, schedule: Q01DX009 (ip), vehicle: saline with Tween-80
[14] = dose: 400.0 mg/kg/injection, schedule: Q01DX009 (ip), vehicle: saline with Tween-80
[15] = dose: 100.0 mg/kg/injection, schedule: Q01DX009 (ip), vehicle: Klucel (hydroxypropylcellulose) (HPC)
[16] = dose: 200.0 mg/kg/injection, schedule: Q01DX009 (ip), vehicle: Klucel (hydroxypropylcellulose) (HPC)
[17] = dose: 100.0 mg/kg/injection, schedule: Q01DX001 (ip), vehicle: carboxymethylcellulose (CMC)
[18] = dose: 200.0 mg/kg/injection, schedule: Q01DX001 (ip), vehicle: carboxymethylcellulose (CMC)
[19] = dose: 400.0 mg/kg/injection, schedule: Q01DX001 (ip), vehicle: carboxymethylcellulose (CMC)
[20] = dose: 50.0 mg/kg/injection, schedule: Q01DX009 (ip), vehicle: Klucel (hydroxypropylcellulose) (HPC)
[21] = dose: 200.0 mg/kg/injection, schedule: Q04DX003 (ip), vehicle: saline with Tween-80
[22] = dose: 400.0 mg/kg/injection, schedule: Q04DX003 (ip), vehicle: saline with Tween-80

SMILES: CCCCCCCCCCCCSCCCN
- T/C (dose: 12.5 mg/kg/injection, schedule: Q04DX003 (ip), vehicle: saline with Tween-80): 96 % of control
- T/C [1]: 93 % of control
- T/C [2]: 96 % of control

SMILES: O=S(=O)(O)c1cc(O)c2cc(Nc3ccccc3)ccc2c1
- T/C (dose: 50.0 mg/kg/injection, schedule: Q01DX009 (ip), vehicle: saline): 96 % of control
- T/C (dose: 100.0 mg/kg/injection, schedule: Q01DX009 (ip), vehicle: saline): 93 % of control
- T/C (dose: 100.0 mg/kg/injection, schedule: Q04DX003 (ip), vehicle: saline): 89 % of control
- T/C (dose: 200.0 mg/kg/injection, schedule: Q01DX009 (ip), vehicle: saline): 102 % of control
- T/C (dose: 200.0 mg/kg/injection, schedule: Q04DX003 (ip), vehicle: saline): 100 % of control

SMILES: CC12C(=O)NC(=O)N3CCCN4C(=O)NC(=O)C1(C)C4C32 (stereo not given)
- T/C (dose: 75.0 mg/kg/injection, schedule: Q01DX001 (ip), vehicle: saline): 94 % of control
- T/C (dose: 150.0 mg/kg/injection, schedule: Q01DX001 (ip), vehicle: saline): 97 % of control
- T/C (dose: 300.0 mg/kg/injection, schedule: Q01DX001 (ip), vehicle: saline): 100 % of control

SMILES: COc1ccc(C(=O)CC(C)=O)c(OCc2ccccc2)c1OC
- T/C [3]: 101 % of control
- T/C [4]: 98 % of control
- T/C (dose: 400.0 mg/kg/injection, schedule: Q01DX001 (ip), vehicle: saline): 104 % of control

SMILES: CCOC(=O)CCSc1ccc(NC(C)=O)cc1
- T/C (dose: 100.0 mg/kg/injection, schedule: Q01DX001 (ip), vehicle: saline with Tween-80): 103 % of control
- T/C (dose: 200.0 mg/kg/injection, schedule: Q01DX001 (ip), vehicle: saline with Tween-80): 111 % of control
- T/C (dose: 400.0 mg/kg/injection, schedule: Q01DX001 (ip), vehicle: saline with Tween-80): 97 % of control

SMILES: CCN(CC)Cc1c(C)[nH]c2c(OC)cccc2c1=O
- T/C (dose: 25.0 mg/kg/injection, schedule: Q04DX003 (ip), vehicle: water): 103 % of control
- T/C (dose: 50.0 mg/kg/injection, schedule: Q04DX003 (ip), vehicle: water): 97 % of control
- T/C (dose: 100.0 mg/kg/injection, schedule: Q01DX009 (ip), vehicle: water): 101 % of control
- T/C (dose: 100.0 mg/kg/injection, schedule: Q04DX003 (ip), vehicle: water): 100 % of control and 102 % of control

SMILES: O=Cc1c(O)ccc2ccccc12
- T/C [5]: 90 % of control
- T/C [6]: 93 % of control
- T/C [7]: 96 % of control

SMILES: S=C(S)NNc1ccccc1
- T/C [1]: 104 % of control
- T/C (dose: 50.0 mg/kg/injection, schedule: Q01DX009 (ip), vehicle: saline with Tween-80): 86 % of control
- T/C [2]: 109 % of control
- T/C [8]: 86 % of control
- T/C [9]: 109 % of control

SMILES: CC1(C)OB(C(Br)(B2OC(C)(C)C(C)(C)O2)B2OC(C)(C)C(C)(C)O2)OC1(C)C
- T/C [10]: 100 % of control
- T/C [11]: 100 % of control
- T/C [12]: 108 % of control

SMILES: Cc1ccc(S(=O)(=O)Nc2cccc3c(NS(=O)(=O)c4ccc(C)cc4)cccc23)cc1
- T/C [8]: 96 % of control
- T/C [13]: 94 % of control
- T/C [14]: 100 % of control

SMILES: O=C1Cc2ccccc2N1C(=O)c1ccccc1
- T/C (dose: 50.0 mg/kg/injection, schedule: Q04DX002 (ip), vehicle: Klucel (hydroxypropylcellulose) (HPC)): 97 % of control
- T/C [5]: 101 % of control
- T/C [6]: 90 % of control

SMILES: S=C(N/N=C1\CCCCC1c1ccccc1)Nc1ccccc1 (stereo not given)
- T/C [15]: 95 % of control
- T/C [16]: 90 % of control
- T/C (dose: 400.0 mg/kg/injection, schedule: Q01DX009 (ip), vehicle: Klucel (hydroxypropylcellulose) (HPC)): 104 % of control

SMILES: CN(N=O)C(=O)NCCCCCNC(=O)N(C)N=O
- T/C (dose: 6.25 mg/kg/injection, schedule: Q01DX Z (ip), vehicle: carboxymethylcellulose (CMC)): 102 % of control
- T/C (dose: 12.5 mg/kg/injection, schedule: Q01DX Z (ip), vehicle: carboxymethylcellulose (CMC)): 100 % of control
- T/C (dose: 25.0 mg/kg/injection, schedule: Q01DX Z (ip), vehicle: carboxymethylcellulose (CMC)): 106 % of control
- T/C (dose: 50.0 mg/kg/injection, schedule: Q01DX Z (ip), vehicle: carboxymethylcellulose (CMC)): 108 % of control
- T/C (dose: 150.0 mg/kg/injection, schedule: Q01DX Z (ip), vehicle: carboxymethylcellulose (CMC)): 191 % of control
- T/C (dose: 175.0 mg/kg/injection, schedule: Q01DX Z (ip), vehicle: carboxymethylcellulose (CMC)): 166 % of control
- T/C (dose: 200.0 mg/kg/injection, schedule: Q01DX Z (ip), vehicle: carboxymethylcellulose (CMC)): 158 % of control
- T/C (dose: 210.0 mg/kg/injection, schedule: Q01DX001 (ip), vehicle: carboxymethylcellulose (CMC)): 117 % of control

SMILES: CC(=O)Nc1nc(C(=O)O)c(CCCCc2ccccc2)c(=O)[nH]1
- T/C [10]: 95 % of control
- T/C [11]: 98 % of control
- T/C [12]: 101 % of control

SMILES: COC(=O)/C=C(\C)Nc1ccc(Cc2ccc(NC(C)=O)cc2)cc1
- T/C [3]: 95 % of control
- T/C [4]: 98 % of control

SMILES: Cc1cc(O)c(C)c(C(=O)O)c1
- T/C [17]: 98 % of control
- T/C [18]: 106 % of control
- T/C [19]: 98 % of control

SMILES: Cc1cc(S(=O)(=O)NO)c(N)cc1Cl
- T/C [20]: 108 % of control
- T/C [15]: 99 % of control
- T/C [16]: 99 % of control

SMILES: Oc1ccccc1CNc1nn[nH]n1
- T/C [10]: 101 % of control
- T/C [11]: 108 % of control
- T/C [12]: 103 % of control

SMILES: OCP(CO)CO.[Cl][Hg][Cl]
- T/C (dose: 30.0 mg/kg/injection, schedule: Q01DX001 (ip), vehicle: saline): 119 % of control

SMILES: COc1ccc(Cl)cc1N1C(=O)C2C(C1=O)C1(Cl)C(Cl)=C(Cl)C2(Cl)C1(Cl)Cl (stereo not given)
- T/C [20]: 91 % of control
- T/C [15]: 101 % of control
- T/C (dose: 100.0 mg/kg/injection, schedule: Q04DX003 (ip), vehicle: Klucel (hydroxypropylcellulose) (HPC)): 98 % of control
- T/C (dose: 200.0 mg/kg/injection, schedule: Q04DX003 (ip), vehicle: Klucel (hydroxypropylcellulose) (HPC)): 98 % of control

SMILES: O=C1CC2(CCCCC2)C(=O)N1
- T/C (dose: 5.0 mg/kg/injection, schedule: Q04DX003 (ip), vehicle: saline with Tween-80): 102 % of control
- T/C (dose: 10.0 mg/kg/injection, schedule: Q04DX003 (ip), vehicle: saline with Tween-80): 102 % of control
- T/C (dose: 20.0 mg/kg/injection, schedule: Q04DX003 (ip), vehicle: saline with Tween-80): 102 % of control

SMILES: COC(=O)C1=C(C)NC(=O)NC1c1ccc(OC)cc1 (stereo not given)
- T/C [9]: 103 % of control
- T/C [21]: 90 % of control
- T/C [22]: 90 % of control

SMILES: Cc1cc(N)n(C(N)=O)n1
- T/C [8]: 102 % of control
- T/C [9]: 106 % of control
- T/C [13]: 110 % of control
- T/C [21]: 107 % of control
- T/C [14]: 108 % of control
- T/C [22]: 109 % of control

SMILES: CCCCCCCCCN(CCCCCCCCC)CC(O)c1ccc2cc(Br)c3ccccc3c2c1 (stereo not given)
- T/C (dose: 222.0 mg/kg/injection, schedule: Q01DX Z (ip), vehicle: methylcellulose (MC)): 98 % of control
- T/C (dose: 333.0 mg/kg/injection, schedule: Q01DX Z (ip), vehicle: methylcellulose (MC)): 95 % of control
- T/C (dose: 500.0 mg/kg/injection, schedule: Q01DX Z (ip), vehicle: methylcellulose (MC)): 92 % of control

SMILES: O=c1c2c(=O)c3ccccc3c(=O)c=2c(=O)c2ccccc12
- T/C [5]: 93 % of control
- T/C [6]: 89 % of control
- T/C [7]: 89 % of control

SMILES: O=C(Nc1ccccc1)/C(Cl)=C/O
- T/C [5]: 91 % of control
- T/C [6]: 94 % of control
- T/C [7]: 97 % of control

SMILES: CC(=O)c1ccc(S(=O)(=O)NCCCc2c(C)nc(NS(=O)(=O)c3ccc(C(C)=O)cc3)[nH]c2=O)cc1
- T/C [17]: 98 % of control
- T/C [18]: 96 % of control
- T/C [19]: 93 % of control

SMILES: CC1CCC2(CC3C(CC(C4CCC5CC(O)CCC5(C)C4CC(=O)O)C3(C)O)O2)OC1 (stereo not given)
- T/C (dose: 75.0 mg/kg/injection, schedule: Q04DX003 (ip), vehicle: saline): 89 % of control
- T/C (dose: 150.0 mg/kg/injection, schedule: Q04DX003 (ip), vehicle: saline): 100 % of control
- T/C (dose: 300.0 mg/kg/injection, schedule: Q04DX003 (ip), vehicle: saline): 87 % of control

Reference: PubChem BioAssay AID248 (DTP/NCI, 2004)
